Measurements reported in ChEMBL document CHEMBL2407067, “Pyridone-conjugated monobactam antibiotics with gram-negative activity” (J Med Chem, 2013).
Values after ≈ are worked out from the molar mass of the structure shown.

How the values were obtained:
Rattus norvegicus = experiment: Intrinsic clearance in Wistar Han rat at 1 mg/kg, iv by LC/MS/MS analysis; type: ADME, organism-based; set-up: dose 1 mg/kg, route intravenous; details: in vivo
[1] = Plasma clearance in Wistar Han rat at 1 mg/kg, iv by LC/MS/MS analysis; type: ADME, organism-based; set-up: dose 1 mg/kg, route intravenous
Pseudomonas aeruginosa [2] = experiment: Antibacterial activity against FptA receptor-deficient Pseudomonas aeruginosa PAO1 in Muller-Hinton broth medium by broth microdilution method; type: functional
Pseudomonas aeruginosa [3] = experiment: Antibacterial activity against Pseudomonas aeruginosa 1042-06 by broth microdilution method; type: functional
Pseudomonas aeruginosa [4] = experiment: Antibacterial activity against PiuA receptor-deficient Pseudomonas aeruginosa PAO1 in Muller-Hinton broth medium by broth microdilution method; type: functional
Pseudomonas aeruginosa [5] = experiment: Antibacterial activity against FptA receptor-deficient Pseudomonas aeruginosa PAO1 in iron-chelated Muller-Hinton broth medium by broth microdilution method; type: functional
Acinetobacter sp. = experiment: Antibacterial activity against Acinetobacter spp. by broth microdilution method; type: functional
Pseudomonas aeruginosa [6] = experiment: Antibacterial activity against PiuA receptor-deficient Pseudomonas aeruginosa PAO1 in iron-chelated Muller-Hinton broth medium by broth microdilution method; type: functional
Klebsiella pneumoniae [7] = experiment: Antibacterial activity against Klebsiella pneumoniae expressing KPC by broth microdilution method; type: functional
[8] = Inhibition of PBP1a in Pseudomonas aeruginosa ATCC 27853 after 20 mins by fluorescence assay
Escherichia coli [9] = experiment: Antibacterial activity against Escherichia coli expressing ESBL by broth microdilution method; type: functional
Pseudomonas aeruginosa [10] = experiment: microbe, parasite or virus in culture; details: 1091-05
Description: Antibacterial activity against Pseudomonas aeruginosa 1091-05 by broth microdilution method

[11] = Fraction unbound in human plasma; type: ADME, cell-free
Pseudomonas aeruginosa [12] = experiment: Antibacterial activity against PiuA/PirA receptor-deficient Pseudomonas aeruginosa PAO1 in Muller-Hinton broth medium by broth microdilution method; type: functional
Pseudomonas aeruginosa [13] = experiment: Antibacterial activity against FpvA receptor-deficient Pseudomonas aeruginosa PAO1 in Muller-Hinton broth medium by broth microdilution method; type: functional
Pseudomonas aeruginosa [14] = experiment: Ratio of MIC for PiuA/PirA receptor-deficient Pseudomonas aeruginosa PAO1 to MIC for Pseudomonas aeruginosa PAO1 in Muller-Hinton broth medium by broth microdilution method; type: functional
Escherichia coli [15] = experiment: Antibacterial activity against Escherichia coli expressing defined beta-lactamase by broth microdilution method; type: functional
[16] = Inhibition of PBP1b in Pseudomonas aeruginosa ATCC 27853 after 20 mins by fluorescence assay
Klebsiella pneumoniae [17] = experiment: Antibacterial activity against Klebsiella pneumoniae expressing defined beta-lactamase by broth microdilution method; type: functional
Pseudomonas aeruginosa [18] = experiment: Ratio of MIC for PiuA receptor-deficient Pseudomonas aeruginosa PAO1 to MIC for Pseudomonas aeruginosa PAO1 in Muller-Hinton broth medium by broth microdilution method; type: functional
Pseudomonas aeruginosa [19] = experiment: Antibacterial activity against PirA receptor-deficient Pseudomonas aeruginosa PAO1 in Muller-Hinton broth medium by broth microdilution method; type: functional
Pseudomonas aeruginosa [20] = experiment: Antibacterial activity against PiuA/FpvA receptor-deficient Pseudomonas aeruginosa PAO1 in Muller-Hinton broth medium by broth microdilution method; type: functional
[21] = Fraction unbound in rat plasma; type: ADME, cell-free
Klebsiella pneumoniae [22] = experiment: Antibacterial activity against Klebsiella pneumoniae 1000-02 by broth microdilution method; type: functional
Pseudomonas aeruginosa [23] = experiment: Antibacterial activity against FpvA receptor-deficient Pseudomonas aeruginosa PAO1 in iron-chelated Muller-Hinton broth medium by broth microdilution method; type: functional
Pseudomonas aeruginosa [24] = experiment: Antibacterial activity against PirA receptor-deficient Pseudomonas aeruginosa PAO1 in iron-chelated Muller-Hinton broth medium by broth microdilution method; type: functional
Pseudomonas aeruginosa [25] = experiment: Antibacterial activity against PiuA/FptA receptor-deficient Pseudomonas aeruginosa PAO1 in Muller-Hinton broth medium by broth microdilution method; type: functional
[26] = Inhibition of PBP2 in Pseudomonas aeruginosa ATCC 27853 after 20 mins by fluorescence assay
Pseudomonas aeruginosa [27] = experiment: Antibacterial activity against Pseudomonas aeruginosa expressing metallo-beta-lactamase by broth microdilution method; type: functional
Pseudomonas aeruginosa [28] = experiment: Antibacterial activity against PiuA/PirA receptor-deficient Pseudomonas aeruginosa PAO1 in iron-chelated Muller-Hinton broth medium by broth microdilution method; type: functional
Pseudomonas aeruginosa [29] = experiment: Antibacterial activity against PiuA/FptA receptor-deficient Pseudomonas aeruginosa PAO1 in iron-chelated Muller-Hinton broth medium by broth microdilution method; type: functional
Pseudomonas aeruginosa [30] = experiment: Ratio of MIC for PiuA/PirA receptor-deficient Pseudomonas aeruginosa PAO1 to MIC for Pseudomonas aeruginosa PAO1 in iron-chelated Muller-Hinton broth medium by broth microdilution method; type: functional
Escherichia coli [31] = experiment: Antibacterial activity against Escherichia coli expressing CTX-M by broth microdilution method; type: functional
Pseudomonas aeruginosa [32] = experiment: Antibacterial activity against Pseudomonas aeruginosa from cystic fibrosis patients by broth microdilution method; type: functional
Klebsiella pneumoniae [33] = experiment: Antibacterial activity against Klebsiella pneumoniae 1487-07 by broth microdilution method; type: functional
Pseudomonas aeruginosa [34] = experiment: Antibacterial activity against Pseudomonas aeruginosa PAO1 in Muller-Hinton broth medium by broth microdilution method; type: functional
Klebsiella pneumoniae [35] = experiment: Antibacterial activity against Klebsiella pneumoniae expressing ESBL by broth microdilution method; type: functional
[36] = Fraction unbound in mouse plasma; type: ADME, cell-free
Pseudomonas aeruginosa [37] = experiment: Antibacterial activity against PiuA/FpvA receptor-deficient Pseudomonas aeruginosa PAO1 in iron-chelated Muller-Hinton broth medium by broth microdilution method; type: functional
[38] = Inhibition of PBP3 in Pseudomonas aeruginosa ATCC 27853 after 20 mins by fluorescence assay
Acinetobacter baumannii = experiment: Antibacterial activity against Acinetobacter baumannii AB-3167 by broth microdilution method; type: functional
Pseudomonas aeruginosa [39] = experiment: Antibacterial activity against Pseudomonas aeruginosa PAO1 in iron-chelated Muller-Hinton broth medium by broth microdilution method; type: functional

CC(C)(O/N=C(\C(=O)N[C@@H]1C(=O)N(S(=O)(=O)O)[C@@H]1CNC(=O)NCc1cc(=O)c(O)cn1O)c1csc(N)n1)C(=O)O
CL (Rattus norvegicus): 10 mL/min/kg
clearance [1]: 8.4 mL/min/kg
MIC (Pseudomonas aeruginosa [2]): 0.25 µg/mL (≈ 0.395 µM)
MIC (Pseudomonas aeruginosa [3]): 2 µg/mL (≈ 3.16 µM)
MIC (Pseudomonas aeruginosa [4]): 8 µg/mL (≈ 12.6 µM)
MIC (Pseudomonas aeruginosa [5]): 0.25 µg/mL (≈ 0.395 µM)
MIC50 (Acinetobacter sp.): 8 µg/mL (≈ 12.6 µM)
MIC90 (Acinetobacter sp.): > 64 µg/mL
MIC (Pseudomonas aeruginosa [6]): 0.5 µg/mL (≈ 0.79 µM)
MIC50 (Klebsiella pneumoniae [7]): 4 µg/mL (≈ 6.32 µM)
MIC90 (Klebsiella pneumoniae [7]): 16 µg/mL (≈ 25.3 µM)
IC50 [8]: 620 nM
MIC50 (Escherichia coli [9]): 0.25 µg/mL (≈ 0.395 µM)
MIC90 (Escherichia coli [9]): 2 µg/mL (≈ 3.16 µM)
MIC (Pseudomonas aeruginosa [10]): 0.25 µg/mL (≈ 0.395 µM)
fraction unbound [11]: 1
MIC (Pseudomonas aeruginosa [12]): 32 µg/mL (≈ 50.6 µM)
MIC (Pseudomonas aeruginosa [13]): 0.25 µg/mL (≈ 0.395 µM)
Ratio (Pseudomonas aeruginosa [14]): >=64
MIC50 (Escherichia coli [15]): 0.125 µg/mL (≈ 0.198 µM)
MIC90 (Escherichia coli [15]): 1 µg/mL (≈ 1.58 µM)
IC50 [16]: 1670 nM
MIC50 (Klebsiella pneumoniae [17]): 0.5 µg/mL (≈ 0.79 µM)
MIC90 (Klebsiella pneumoniae [17]): 16 µg/mL (≈ 25.3 µM)
Ratio (Pseudomonas aeruginosa [18]): 32
MIC (Pseudomonas aeruginosa [19]): 0.25 µg/mL (≈ 0.395 µM)
MIC (Pseudomonas aeruginosa [20]): 8 µg/mL (≈ 12.6 µM)
fraction unbound [21]: 0.91
MIC (Klebsiella pneumoniae [22]): 0.25 µg/mL (≈ 0.395 µM)
MIC (Pseudomonas aeruginosa [23]): 0.06 µg/mL (≈ 0.0948 µM)
MIC (Pseudomonas aeruginosa [24]): 0.25 µg/mL (≈ 0.395 µM)
MIC (Pseudomonas aeruginosa [25]): 8 µg/mL (≈ 12.6 µM)
IC50 [26]: > 300000 nM
MIC50 (Pseudomonas aeruginosa [27]): 0.25 µg/mL (≈ 0.395 µM)
MIC90 (Pseudomonas aeruginosa [27]): 1 µg/mL (≈ 1.58 µM)
MIC (Pseudomonas aeruginosa [28]): 32 µg/mL (≈ 50.6 µM)
MIC (Pseudomonas aeruginosa [29]): 0.5 µg/mL (≈ 0.79 µM)
Ratio (Pseudomonas aeruginosa [30]): >=64
MIC50 (Escherichia coli [31]): 0.5 µg/mL (≈ 0.79 µM)
MIC90 (Escherichia coli [31]): 1 µg/mL (≈ 1.58 µM)
MIC50 (Pseudomonas aeruginosa [32]): 0.25 µg/mL (≈ 0.395 µM)
MIC90 (Pseudomonas aeruginosa [32]): 4 µg/mL (≈ 6.32 µM)
MIC (Klebsiella pneumoniae [33]): 2 µg/mL (≈ 3.16 µM)
MIC (Pseudomonas aeruginosa [34]): 0.25 µg/mL (≈ 0.395 µM)
MIC90 (Klebsiella pneumoniae [35]): 1 µg/mL (≈ 1.58 µM)
fraction unbound [36]: 0.91
MIC (Pseudomonas aeruginosa [37]): 0.25 µg/mL (≈ 0.395 µM)
IC50 [38]: 54 nM
MIC (Acinetobacter baumannii): 0.25 µg/mL (≈ 0.395 µM)

CC(C)(O/N=C(\C(=O)N[C@@H]1C(=O)N(S(=O)(=O)[O-])[C@@H]1CNC(=O)c1cc(=O)c(O)cn1O)c1csc(N)n1)C(=O)[O-].[Na+].[Na+]
MIC (Pseudomonas aeruginosa [2]): 0.5 µg/mL
MIC (Pseudomonas aeruginosa [39]): 0.5 µg/mL
MIC (Pseudomonas aeruginosa [3]): 0.5 µg/mL
MIC (Pseudomonas aeruginosa [4]): 8 µg/mL
MIC (Pseudomonas aeruginosa [5]): 0.5 µg/mL
MIC (Pseudomonas aeruginosa [6]): 0.5 µg/mL
MIC (Pseudomonas aeruginosa [10]): 0.5 µg/mL
MIC (Pseudomonas aeruginosa [12]): 64 µg/mL
MIC (Pseudomonas aeruginosa [13]): 1 µg/mL
Ratio (Pseudomonas aeruginosa [14]): >=64
Ratio (Pseudomonas aeruginosa [18]): 16
MIC (Pseudomonas aeruginosa [19]): 0.5 µg/mL
MIC (Pseudomonas aeruginosa [20]): 16 µg/mL
MIC (Klebsiella pneumoniae [22]): < 0.06 µg/mL
MIC (Pseudomonas aeruginosa [23]): 0.5 µg/mL
MIC (Pseudomonas aeruginosa [24]): 0.5 µg/mL
MIC (Pseudomonas aeruginosa [25]): 8 µg/mL
MIC (Pseudomonas aeruginosa [28]): 64 µg/mL
MIC (Pseudomonas aeruginosa [29]): 0.5 µg/mL
Ratio (Pseudomonas aeruginosa [30]): >=64
MIC (Klebsiella pneumoniae [33]): 0.25 µg/mL
MIC (Pseudomonas aeruginosa [34]): 0.5 µg/mL
MIC (Pseudomonas aeruginosa [37]): 1 µg/mL
MIC (Acinetobacter baumannii): 0.5 µg/mL

CC(C)(O/N=C(\C(=O)N[C@@H]1C(=O)N(S(=O)(=O)O)[C@@H]1Cn1cc(COCc2cc(=O)c(O)cn2O)nn1)c1csc(N)n1)C(=O)O
CL (Rattus norvegicus): 94 mL/min/kg
clearance [1]: 31.3 mL/min/kg
MIC (Pseudomonas aeruginosa [3]): 1 µg/mL (≈ 1.49 µM)
MIC (Pseudomonas aeruginosa [10]): 0.25 µg/mL (≈ 0.372 µM)
fraction unbound [11]: 0.5
fraction unbound [21]: 0.6
fraction unbound [36]: 0.8
MIC (Acinetobacter baumannii): 0.25 µg/mL (≈ 0.372 µM)
